Test results as given in PubChem BioAssay (NCI).
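A five-concentration, 48-hour dose response in 96-well plates underlies each endpoint, interpolated linearly between surrounding concentrations. GI50: concentration for 50% inhibition of growth. TGI: concentration producing complete growth inhibition.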

Legend:
Assay in all cases: NCI-60 cell line screen, 48 h
COLO 205 colon = system: COLO 205 colon
SF-539 CNS = system: SF-539 CNS
HOP-62 NSCLC = system: HOP-62 NSCLC
SF-295 CNS = system: SF-295 CNS
M14 melanoma = system: M14 melanoma
SK-MEL-28 melanoma = system: SK-MEL-28 melanoma
HCT-116 colon = system: HCT-116 colon
HCC-2998 colon = system: HCC-2998 colon
CAKI-1 renal = system: CAKI-1 renal
HL-60(TB) leukemia = system: HL-60(TB) leukemia

Row | Compound | GI50 (COLO 205 colon) [µM] | TGI (COLO 205 colon) [µM] | GI50 (SF-539 CNS) [µM] | TGI (SF-539 CNS) [µM] | GI50 (HOP-62 NSCLC) [µM] | TGI (HOP-62 NSCLC) [µM] | GI50 (SF-295 CNS) [µM] | TGI (SF-295 CNS) [µM] | GI50 (M14 melanoma) [µM] | TGI (M14 melanoma) [µM] | GI50 (SK-MEL-28 melanoma) [µM] | TGI (SK-MEL-28 melanoma) [µM] | GI50 (HCT-116 colon) [µM] | TGI (HCT-116 colon) [µM] | GI50 (HCC-2998 colon) [µM] | TGI (HCC-2998 colon) [µM] | GI50 (CAKI-1 renal) [µM] | TGI (CAKI-1 renal) [µM] | GI50 (HL-60(TB) leukemia) [µM] | TGI (HL-60(TB) leukemia) [µM]
1 | O=C1C(=C([O-])c2ccccc2)C(=O)c2ccccc21.O=C1C(=C([O-])c2ccccc2)C(=O)c2ccccc21.[Co+2] | 38.5 | > 100 | > 100 | > 100 | > 100 | > 100 | 59.6 | > 100 | > 100 | > 100 | > 100 | > 100 | > 100 | > 100 | > 100 | > 100 | 57.3 | > 100 | – | –
2 | O=C(O)c1cn(C2CC2)c2cc(N3CCN(C(=O)Nc4nc(-c5ccc(Br)cc5)cs4)CC3)c(F)cc2c1=O | – | – | 1.56 | > 100 | 4.34 | > 100 | 3.06 | > 100 | 2.24 | > 100 | 4.08 | > 100 | 1.17 | > 100 | 2.97 | > 100 | – | – | – | –
3 | N#Cc1c2ccccc2c2nnc3ccccc3n12 | 9.32 | > 100 | – | – | 24.4 | 60.1 | 49 | > 100 | 14.9 | 62.4 | 78.6 | > 100 | 28 | > 100 | – | – | 34.8 | > 100 | > 100 | > 100
4 | Cn1c(NCC(CN2CCCC2)OC(=O)c2ccccc2)cc(=O)n(C)c1=O (stereo unspecified) | > 100 | > 100 | > 100 | > 100 | > 100 | > 100 | > 100 | > 100 | – | – | > 100 | > 100 | > 100 | > 100 | > 100 | > 100 | > 100 | > 100 | – | –
5 | O=c1nc(N2CCCC2)nc(N2CCCC2)s1 | – | – | – | > 100 | – | > 100 | – | > 100 | – | > 100 | – | > 100 | – | > 100 | – | > 100 | – | > 100 | – | > 100
6 | C=C(COC(C)=O)CC(/C=C(\C)CC/C=C(\C)CO)OC(C)=O (stereo unspecified) | – | > 100 | – | > 100 | – | > 100 | – | > 100 | – | > 100 | – | > 100 | – | > 100 | – | > 100 | – | – | – | > 100
7 | C#CCn1c(=O)c2cccnc2n(CC#C)c1=O | – | > 100 | – | – | – | > 100 | – | > 100 | – | > 100 | – | > 100 | – | > 100 | – | > 100 | – | > 100 | – | > 100
8 | COc1ccccc1NC(=O)C(=O)Cc1cnc2ccccc2n1 | – | > 100 | – | > 100 | – | – | – | > 100 | – | > 100 | – | > 100 | – | > 100 | – | > 100 | – | > 100 | – | > 100
9 | CN(C)CC1CCCCCCCCCCCCC(CN(C)C)C1=O (stereo unspecified) | – | 27.6 | – | 28.7 | – | 30.3 | – | 29.6 | – | 25.9 | – | 26.6 | – | 16.8 | – | 22.2 | – | 26.3 | – | –
10 | C=C1C(=O)c2cc3c(cc2C(c2cc(OC)c(OC)c(OC)c2)[C@@H]1C(=O)O)OCO3 (stereo partly specified) | – | > 100 | – | > 100 | – | – | – | > 100 | – | > 100 | – | > 100 | – | > 100 | – | > 100 | – | > 100 | – | –
11 | Cn1c2cc([N+](=O)[O-])ccc2c(=O)c2c(O)cc3c(c21)C=CC(C)(C)O3 | – | > 100 | – | 32.4 | – | – | – | 47.1 | – | > 100 | – | > 100 | – | – | – | > 100 | – | > 100 | – | > 100
12 | CCOC(=O)[C@@H](C)C[C@H](Cc1ccccc1)NC(=O)c1csc([C@@H](C[C@H](C(C)C)N(C)C(=O)[C@@H](NC(=O)[C@H]2C[C@H](O)CCN2C)C(C)C)OC(C)=O)n1 | < 0.00167 | 0.0143 | 0.00452 | 0.0157 | 0.0146 | > 16.7 | 0.00781 | > 16.7 | – | – | – | – | – | – | 0.00295 | > 16.7 | 0.0682 | > 16.7 | 0.00278 | 0.012
13 | CCC(C)CC(C)C(=O)c1c(O)ccn(O)c1=O (stereo unspecified) | 38.3 | > 100 | 1.04 | 8.08 | 1.98 | > 100 | 5.22 | 49.6 | 1.61 | 15 | 2.27 | > 100 | 1.08 | > 100 | 6 | > 100 | – | – | 0.473 | 12.6
14 | COC(=O)c1nc(C(=O)OC)c2c([nH]c3ccccc32)c1C(=O)OC | – | > 100 | – | > 100 | – | > 100 | – | > 100 | – | > 100 | – | > 100 | – | > 100 | – | > 100 | – | – | – | –
15 | COc1cc2c(cc1OCCCCn1c(-c3cccs3)nc3ccccc31)N=C[C@@H]1CCCN1C2=O | 1.07 | 2.58 | 1.72 | 3.66 | – | – | – | – | 1.35 | 2.8 | 1.53 | 3.27 | 1.75 | – | 2.08 | 4.5 | 0.949 | 6.71 | 5.18 | 53.4
16 | O=C([O-])CCc1ccccc1.O=C([O-])CCc1ccccc1.O=C([O-])CCc1ccccc1.O=C([O-])CCc1ccccc1.[Mo+2].[Mo+2] | > 100 | > 100 | > 100 | > 100 | – | – | > 100 | > 100 | > 100 | > 100 | > 100 | > 100 | > 100 | > 100 | > 100 | > 100 | > 100 | > 100 | > 100 | > 100
17 | N#Cc1c(-c2ccccc2)cc(-c2cccs2)c(C#N)c1N | – | – | – | > 100 | – | > 100 | – | > 100 | – | > 100 | – | – | – | > 100 | – | > 100 | – | > 100 | – | > 100
18 | CC(=O)N(CCN1C(=O)c2ccccc2C1=O)CCN1C(=O)c2ccccc2C1=O | – | > 100 | – | – | – | > 100 | – | > 100 | – | > 100 | – | > 100 | – | > 100 | – | > 100 | – | > 100 | – | > 100
19 | CCOC(=O)/C(=C/c1ccccc1Br)P(=O)(OCC)OCC | – | – | – | 6.22 | – | 12 | – | 12.2 | – | 2.95 | – | 4.66 | – | 10.1 | – | 3.24 | – | 4.3 | – | 1.94
20 | CC(C)(CN1CCCCC1)C(=O)CC(SCCN)c1ccc(Cl)cc1 (stereo unspecified) | – | 3.24 | – | 4.21 | – | 12.8 | – | 12.4 | – | 3.63 | – | 13 | – | 7.61 | – | 3.76 | – | 5.85 | – | –
21 | CC(=O)Oc1c(Br)ccc2cc(C(Br)Br)c(C(=O)c3ccccc3)nc12 | – | 52.7 | – | 42.3 | – | 34.4 | – | 35.1 | – | 40.8 | – | 36.1 | – | 42.9 | – | 32.6 | – | 12.9 | – | –
22 | CC(=O)SC(SC(C)=O)SC(C)=O | – | 82.9 | – | > 100 | – | > 100 | – | – | – | > 100 | – | > 100 | – | > 100 | – | > 100 | – | – | – | > 100
23 | O=c1[nH]c(F)nc2c1ncn2C1OC(CO)C(O)C1O (stereo unspecified) | > 100 | > 100 | 23.9 | 80.3 | > 100 | > 100 | > 100 | > 100 | > 100 | > 100 | > 100 | > 100 | > 100 | > 100 | > 100 | > 100 | – | – | > 100 | > 100
24 | C=C1c2[nH]c3ccccc3c2CC(C(=O)O)N1C(O)c1ccc(S(=O)(=O)O)cc1 (stereo unspecified) | – | – | – | > 100 | – | > 100 | – | > 100 | – | > 100 | – | > 100 | – | > 100 | – | > 100 | – | > 100 | – | > 100
25 | O=C(O)c1ccc(Oc2nc3ccccc3s2)cc1 | – | > 100 | – | > 100 | – | > 100 | – | > 100 | – | > 100 | – | > 100 | – | > 100 | – | – | – | > 100 | – | > 100
26 | NS(=O)(=O)c1ccc(N=C2C(=O)Nc3ccccc32)cc1 | – | 98.4 | – | – | – | > 100 | – | > 100 | – | > 100 | – | > 100 | – | > 100 | – | > 100 | – | > 100 | – | > 100
27 | COC1=CC(=O)OC(/C=C(C)/C=C/C2=C(C)CCCC2(C)C)C1 (stereo unspecified) | – | – | – | > 100 | – | > 100 | – | > 100 | – | > 100 | – | > 100 | – | > 100 | – | > 100 | – | > 100 | – | > 100
28 | O=c1[nH]c2ccccc2n2cc3ccccc3c12 | 4.52 | > 100 | 5.11 | 22.2 | 4.42 | 17.9 | 17.9 | 35.8 | 6.39 | 22.9 | 22.6 | > 100 | 2.12 | 12.3 | 5.84 | 20.8 | 17.6 | 35.5 | – | –
29 | CC1=NC=C(O)c2ccccc2O1 | – | > 100 | – | > 100 | – | > 100 | – | > 100 | – | > 100 | – | > 100 | – | > 100 | – | > 100 | – | – | – | > 100
